From US20150118215A1, “Methods of Inhibiting Cell Proliferation” (The General Hospital Corporation, priority 2012, published 2015)
Entries after “also recorded” stand apart in the source; their conditions may differ.

Tests used:
MTC cells [1] = test: Cell population endocytic uptake assay (albumin-Alexa555, RITC-dextran) in MTC cells; format: cell-based; settings: for effect on uptake of albumin-Alexa555 via receptor-mediated (CDE) pathway: control non-stimulated conditions; for effect on uptake of albumin-Alexa555 via receptor-mediated (CDE) pathway / effect on uptake of albumin-Alexa555 via FITC-a2N1-17-TAT peptide-induced macropinocytosis (CIE) pathway: 1 μM bafilomycin A1, 100 μM DMA or 100 μM EIPA; for effect on uptake of albumin-Alexa555 via FITC-a2N1-17-TAT peptide-induced macropinocytosis (CIE) pathway: peptide-stimulated; for effect on endocytic uptake of fluid phase marker RITC-dextran: control and peptide-stimulated conditions, inhibitors
Experimental: (§1) Cell Population Albumin Endocytic Uptake Assay—
(§2) Quantitative endocytic uptake of albumin-Alexa555 and RITC-dextran was performed using a cell population assay as previously described (Hurtado-Lorenzo et al. (Nat Cell Biol 8, 124-136, 2006)). HeLa cells were seeded on 48-well plates (5,000 cells/well) and grown for 5 days. MTC cells were seeded on 48-well plates (5,000 cells/well) and grown for 7 days until polarized, followed by starvation for 2 days in serum-free DMEM medium. Cells were incubated in 200 μl of Ringer buffer (pH 7.4) containing either 200 μg/ml albumin-Alexa555 or 500 μg/ml RITC-dextran in the presence of 5 μM FITC-TAT or 5 μM FITC-a2N1-17-TAT peptides. As indicated, cells were also treated with 1 μM bafilomycin A1, 1 mM amiloride, 100 μM DMA or 100 μM EIPA. At the indicated times, cells were washed with Ringer's buffer (pH 6.0) for three times and were permeabilized in 20 mM MOPS (pH 7.0), 0.1% Triton X-100. The fluorescence was measured using a DTX 880 Microplate Reader (Beckman) with 535-nm excitation and 595-nm emission filters (FIGS. 7, 8, and 12).

MTC cells [2] = test: Cell population albumin degradation assay (DQ-Red BSA); format: cell-based; settings: 5 μM peptides, 1 μM bafilomycin A1, 20 mM NH4Cl, 1 mM amiloride, 100 μM DMA
Experimental: Cell Population Albumin Degradation Assay—
Quantitative protein degradation assay was performed using DQ-Red BSA. MTC cells were seeded on 48-well plate (5,000 cells/well) and grown for 7 days until being polarized, followed by starvation for two days in serum-free DMEM medium. Cells were washed with Ringer buffer (pH 6.0) for three times and with Ringer buffer (pH 7.4) once. Cells were then incubated in 200 μl of Ringer buffer (pH 7.4) containing as indicated: 5 μM FITC-TAT, 5 μM FITC-a2N1-17-TAT peptide, 1 μM baflomycin A1, 20 mM NH4Cl, 1 mM amiloride or 100 μM DMA. DQ-Red BSA was added to a final concentration of 10 μg/ml. The fluorescence was estimated using a DTX 880 Microplate Reader (Beckman) with 590-nm excitation and 625-nm emission filters every 3 minutes. The 48-well plate was kept at 37° C. in the microplate reader (FIG. 11).

MTC cells [3] = test: Pulse-chase live time-lapse confocal imaging and tracking of endocytic vesicles; format: cell-based
Experimental: Pulse-Chase Experiments and Live Time-Lapse Confocal Fluorescence Imaging—
Live cell imaging of MTC cells was performed using time-lapse confocal fluorescent imaging as previously described (Hurtado-Lorenzo et al. (Nat Cell Biol 8, 124-136, 2006)). MTC cells were seeded on FluoroDish (World Precision Instruments, Inc) (25,000-100,000 cells/dish) and grown to about 50% confluency. To label the organelles of the endocytic pathway in vivo, MTC cells were transfected using lipofectamine 2000 (Invitrogen) with 5 μg of the plasmids: i) EEA1-GFP or Rab5-EGFP (early endosomal markers); ii) Rab7-EGFP (late endosomal marker), and iii) LAMP1-mGFP (lysosomal marker). After two days, the cells were washed for three times with Ringer's buffer (pH 6.0) followed by one wash with Ringer's buffer (pH 7.4) at 37° C., and i) pulsed for 15 min with 5 μM FITC-TAT and 100 μg/ml albumin-Alexa594: ii) pulsed for 15 min with 5 μM FITC-a2N1-17-TAT and 100 μg/ml albumin-Alexa594; or iii) pre-incubated in the presence or absence of 1 μM bafilomycin A1 and pulsed with 100 μg/ml albumin-Alexa594. The MTC cells transfected with EEA1-GFP, Rab5-EGFP, Rab7-EGFP and LAMP1-GFP plasmids were pulsed for 6-15 min with 5 μM of CTMR-a2N1-17-TAT peptide. After the pulse, cells were washed either by perfusion or rinsing with Ringer's buffer (pH 7.4) and incubated in an environmental chamber (37° C., 5% CO2) coupled to a Nikon inverted microscope. Videos were acquired with a spinning-disc confocal imaging system Ultra View RS (Perkin Elmer). FIGS. 9 and 10 show frames from these movies.
Image Analysis and Tracking of Endocytic Vesicles—
Dynamics of the movement of early endosomes, late endosomes and lysosomes labeled with either: i) albumin-Alexa594; ii) FITC-a2N1-17-TAT and albumin-Alexa594; or iii) CTMR-a2N1-17-TAT and transfected EEA1-GFP markers were tracked with Particle Tracker PlugIn (Merkulova et al. (Biochim BiophysActa 1797, 1398-1409, 2010)) for ImageJ (NIH). The trajectories that appeared for over 30 frames were further analyzed. The two-dimensional displacement between consecutive frames was calculated from changes in X and Y position coordinates and speed was calculated by dividing the displacement by time. The two-dimensional displacements between all possible combinations of frames were also calculated and the longest distance was defined as “maximum distance” of the trajectory. The speeds were averaged for 11 consecutive frames and the fastest speed was defined as “maximum speed” of the trajectory.

cytohesin-2 = molecular target: T1, cytohesin-2 (Homo sapiens, UniProt Q99418); test: Radiolabel-based GEF-activity assay ([35S]-GTPγS binding) of full-length cytohesin-2 with myr-Arf1 or myr-Arf6; format: biochemical
T1 construct: steady-state enzymatic GEF-activity analysis of full-length cytohesin-2 or Sec7 domain with Arf1 and Arf6; made in house; host or cells: E. coli BL21DE3
T1 sequence (Q99418 1-400): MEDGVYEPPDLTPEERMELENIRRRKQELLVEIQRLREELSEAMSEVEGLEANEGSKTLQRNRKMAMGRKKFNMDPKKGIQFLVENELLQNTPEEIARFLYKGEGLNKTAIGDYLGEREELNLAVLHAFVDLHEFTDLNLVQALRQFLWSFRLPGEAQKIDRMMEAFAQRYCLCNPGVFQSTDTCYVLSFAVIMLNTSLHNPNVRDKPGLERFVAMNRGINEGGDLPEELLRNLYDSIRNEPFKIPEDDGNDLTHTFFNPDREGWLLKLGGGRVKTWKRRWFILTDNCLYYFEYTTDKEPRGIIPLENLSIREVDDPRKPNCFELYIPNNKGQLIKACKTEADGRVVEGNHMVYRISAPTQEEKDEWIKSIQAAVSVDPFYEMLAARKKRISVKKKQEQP
Experimental: Two assays were used to determine the GDP/GTP-exchange activity of both full-length cytohesin-2 and Sec7 domain.
a) Radiolabel-Based Assay.
The lipids were dissolved in chloroform. […] Proteins were trapped on nitrocellulose filters.
To test the potential signaling between V-ATPase and cytohesin-2/Arf GTP-binding proteins, a GEF-activity assay was established for cytohesin-2 (wt) and myristoylated myr-Arf6 (wt) and myr-Arf1 (wt) GTP-binding proteins (FIG. 2A). Human Arf1 was co-expressed with yeast N-myristoyltransferase in E. coli BL21/DE3 strain. Recombinant myr-Arf1 was purified from the E. coli lysate (A1) using an AKTApurifier equipped with HiTrapQ, Superdex200 columns (A2), and Phenyl Sepharose HP column (A3). Human Arf6 was also co-expressed with yeast N-myristoyltransferase in E. coli BL21/DE3 strain. Recombinant myr-Arf6 was extracted from insoluble fraction using Triton X-100 (B1). The extract was precipitated by 35% ammonium sulfate and myr-Arf6 purified with HiTrapQ column (B2). […] Several soluble, cell permeable and fluorescently labeled a2N1-17 derived peptides were synthesized, which were used in the current GEF-activity and structural studies in vitro.

HeLa cells = test: Cell population endocytic uptake assay (albumin-Alexa555, RITC-dextran) in HeLa cells; format: cell-based; settings: 5 μM peptide
Experimental: as §1, §2

Human NSCLC A549 cells = test: Cell proliferation assays (MTT, direct cell counting); format: cell-based; settings: A549, wild-type EGFR, KRas-G12S; three days treatment
Experimental: Cell Proliferation Assays—
First, MTT proliferation assay was carried out using cell growth determination kit according to manufacturer instructions (Sigma). Human NSCLC A549 cells which are expressing wild-type EGFR with KRas-G12S activation mutation were studied in these experiments. […] Medium was changed daily for three days, and cells were stained with MTT and DAPI when indicated.
Second, direct cells counting assays were also performed as follows. Microscopic images of 0.317 mm^2 area each well were acquired for MTT stained cells and cells were counted using ImageJ (NIH). […] Alternatively, the cells were stained with DAPI and microscopic images of whole wells were acquired using DeltaVision system (Applied Precision). Cells were counted using Particle Tracker PlugIn for ImageJ as above (FIG. 13).

[4] = molecular target: T2, Sec7-domain of cytohesin-2 (Homo sapiens, UniProt Q99418); settings: Biacore; a2N(1-17) peptide and Sec7-domain; read-out: dissociation constant KD; cited from earlier work
T2 sequence (Q99418 72-201 limits assumed): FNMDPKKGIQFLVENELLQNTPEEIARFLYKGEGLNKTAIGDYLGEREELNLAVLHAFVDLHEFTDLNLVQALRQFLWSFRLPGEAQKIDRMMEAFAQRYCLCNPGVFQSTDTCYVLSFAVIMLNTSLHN

[5] = EEA1-EGFP positive early endosomes, peptide in cytosol of MTC cells, 5 μM

Compound: CCN(c1nc(N)c(C(=O)N=C(N)N)nc1Cl)C(C)C [EIPA, 5-(N-ethyl-N-isopropyl)amiloride]
- effect on uptake of albumin-Alexa555 via receptor-mediated (CDE) pathway (MTC cells [1]): does not affect
- effect on uptake of albumin-Alexa555 via FITC-a2N1-17-TAT peptide-induced macropinocytosis (CIE) pathway (MTC cells [1]): could inhibit

Compound: N=C(N)NC(=O)c1nc(Cl)c(N)nc1N [amiloride]
- effect on degradation of DQ-Red-BSA in endosomal/lysosomal compartments (MTC cells [2]): significantly stimulated

Compound: CTMR- MGSLFRSESMCLAQLFL - YGRKKRRQRRR [CTMR-a2N1-17-TAT]
- moving distance of early endosomes (MTC cells [3]; [5]): significant increase
- moving speed of early endosomes (MTC cells [3]; [5]): significant increase

Compound: CN(C)c1nc(N)c(C(=O)N=C(N)N)nc1Cl.Cl [DMA, 5-N,N-dimethylamiloride hydrochloride]
- effect on endocytic uptake of fluid phase marker RITC-dextran (MTC cells [1]): not modulated
- effect on uptake of albumin-Alexa555 via receptor-mediated (CDE) pathway (MTC cells [1]; hydrochloride): does not affect; also recorded: does not modulate
- effect on uptake of albumin-Alexa555 via FITC-a2N1-17-TAT peptide-induced macropinocytosis (CIE) pathway (MTC cells [1]; hydrochloride): could inhibit; also recorded: strongly inhibits
- effect on degradation of DQ-Red-BSA in endosomal/lysosomal compartments (MTC cells [2]; hydrochloride): significantly stimulated; also recorded: increased

Compound: FITC-TAT: biologically inactive control peptide, FITC-labelled TAT sequence (YGRKKRRQRRR; SEQ ID NO:33); also purchased from Anaspec
- potently inhibits the enzymatic activity of cytohesin-2 (in words) (cytohesin-2; with both myr-Arf6 and myr-Arf1 as substrate): not
- effect on endocytic uptake of albumin-Alexa555 (in words) (MTC cells [1]; 5 μM peptide): no effect and not
- effect on uptake of fluid-phase marker RITC-dextran (MTC cells [1]; 5 μM peptide): not
- effect on uptake of RITC-dextran (HeLa cells): not
- effect on uptake of albumin-Alexa555 (HeLa cells): not
- effect on degradation of DQ-Red-BSA in endosomal/lysosomal compartments (MTC cells [2]): did not have any effect; also recorded: do not affect

Compound: MGSMFRSEEVALVQLLL [a3N1-17]
- inhibition of proliferation of human lung cancer A549 cells (Human NSCLC A549 cells): very potent inhibitors

Compound: Cl.N [NH4Cl]
- effect on degradation of DQ-Red-BSA in endosomal/lysosomal compartments (MTC cells [2]): strongly inhibited

Compound: MASVFRSEEMCLSQVFL [a4N1-17]
- inhibition of proliferation of human lung cancer A549 cells (Human NSCLC A549 cells): very potent inhibitors

Compound: MGELFRSEEMTLAQLFL [a1N1-17]
- inhibition of proliferation of human lung cancer A549 cells (Human NSCLC A549 cells): very potent inhibitors

Compound: MGSLFRSESMCLAQLFL [a2N1-17]
- more potent inhibitor of cytohesin-2 than SecinH3 (cytohesin-2; relative to SecinH3): up to 150 times
- inhibition of proliferation of human lung cancer A549 cells (Human NSCLC A549 cells): very potent inhibitors

Compound: MGSLFRSETMCLAQLFL [a2N(1-17)]
- Kd [4]: 344 nM

Compound: CO/C1=C\C(C)=C\[C@@H](C)[C@@H](O)[C@@H](C)C/C(C)=C/C=C/[C@H](OC)[C@@H]([C@@H](C)[C@@H](O)[C@H](C)[C@@]2(O)C[C@@H](O)[C@H](C)[C@@H](C(C)C)O2)OC1=O [bafilomycin A1]
- effect on endocytic uptake of fluid phase marker RITC-dextran (MTC cells [1]): not modulated
- effect on uptake of albumin-Alexa555 via receptor-mediated (CDE) pathway (MTC cells [1]): inhibitory action; also recorded: inhibits
- effect on uptake of albumin-Alexa555 via FITC-a2N1-17-TAT peptide-induced macropinocytosis (CIE) pathway (MTC cells [1]): no effect; also recorded: does not modulate
- effect on degradation of DQ-Red-BSA in endosomal/lysosomal compartments (MTC cells [2]): strongly inhibited
- effect on moving distance of albumin-Alexa594 positive vesicles (MTC cells [3]; MTC cells, 1 μM bafilomycin A1): time-dependent inhibitory effect
- inhibitory effect on speed of albumin-Alexa594 positive vesicles (MTC cells [3]; MTC cells, late stages of trafficking, 1 μM bafilomycin A1): 20%
